Entries after “also recorded” stand apart in the source; their conditions may differ.
Legend:
[1] = tested on: diet-induced obese (DIO) mice; conditions: treatment of DIO mice with CB1 antagonist; cited from earlier work
DIO mice [2] = conditions: 4 weeks' treatment of DIO mice; cited from earlier work
12-week HFD-fed DIO mice [3] = assay: DIO intervention study: body weight, fat mass, fat pad weight, food intake; type: in vivo; conditions: 21 consecutive days
[4] = tested on: epididymal CD11b+F4/80+ ATMs and CD11c+ M1 ATMs; assay: Flow cytometry of epididymal adipose tissue macrophages in DIO intervention study; type: in vivo, mice
[5] = tested on: 12-week HFD-fed CB2−/− DIO mice; assay: DIO intervention study in CB2-/- mice: body weight, adiposity, appetite; type: in vivo; conditions: AM251 10 mg/kg oral gavage, 21 consecutive days
6-week 36% HFD-fed mice = conditions: cited from earlier work
12-week HFD-fed DIO mice [6] = assay: Oral glucose tolerance test in DIO intervention study; type: in vivo; conditions: 21 consecutive days
DIO mice [7] = conditions: chronic administration in DIO mice; cited from earlier work
[8] = tested on: 20 week 21% HFD-fed DIO mice; conditions: 15 days of CB2 agonism; cited from earlier work
[9] = AM251 10 mg/kg oral gavage, WT DIO mice
[10] = 6-week 36% HFD-fed mice, treatment for 15 days
[11] = SR144528 10 mg/kg oral gavage, versus vehicle-treated mice
[12] = JWH-133 5 mg/kg oral gavage, 21 consecutive days, 5 mg/kg
[13] = Deveaux et al., 15 day treatment of 6-week HFD-fed DIO

In the case of Cc1c(C(=O)NN2CCCCC2)nn(-c2ccc(Cl)cc2Cl)c1-c1ccc(Cl)cc1 [SR141716A], the metabolic impairments [1] is listed as “amelioration”, the obesity [1] is listed as “amelioration” and the adipose tissue inflammation (DIO mice [2]) is listed as “decreased”. For the same compound, the body weight (DIO mice [2]) was “rapid and sustained weight loss”.

For Cc1c(C(=O)NN2CCCCC2)nn(-c2ccc(Cl)cc2Cl)c1-c1ccc(I)cc1 [AM251], the fat pad mass (12-week HFD-fed DIO mice [3]; AM251 10 mg/kg oral gavage) was “reduced”, the adiposity (12-week HFD-fed DIO mice [3]; [9]) was “reduced” and the appetite (12-week HFD-fed DIO mice [3]; [9]) was “suppressed”. The body weight (12-week HFD-fed DIO mice [3]; [9]) was “weight loss”, the “epididymal ATM numbers” value ([4]; AM251 10 mg/kg oral gavage, after 3 weeks of treatment, 10 mg/kg) was “remained constant; also recorded: persistent abundance” and the adiposity [5] was “reduced”. For the same compound, the appetite [5] was “suppressed”, the body weight [5] was “weight loss” and the body weight (DIO mice [2]) was “rapid and sustained weight loss”.

For COc1ccc(C(=O)c2c(C)n(CCN3CCOCC3)c3cc(I)ccc23)cc1 [AM630], the “adipose tissue inflammatory markers” value (6-week 36% HFD-fed mice; [10]) is given as “reduced” and the ATMs (6-week 36% HFD-fed mice; 6-week 36% HFD-fed mice) is given as “reduced”.

With SR144528 the body weight (12-week HFD-fed DIO mice [3]; [11]) was “no changes”, the food intake (12-week HFD-fed DIO mice [3]; [11]) was “no changes” and the glucose tolerance (12-week HFD-fed DIO mice [6]; [11]) was “no changes”. The adipose tissue inflammation ([4]; SR144528 10 mg/kg oral gavage, 21 consecutive days, versus vehicle-treated mice) was “no changes”.

For CCCCCc1cc(O)c2c(c1)OC(C)(C)[C@@H]1CCC(C)=C[C@@H]21 [THC, delta-9-tetrahydrocannabinol], the HFD-induced adiposity (DIO mice [7]) is listed as “reduces”, the HFD-induced polyphagia (DIO mice [7]) is listed as “reduces” and the HFD-induced weight gain (DIO mice [7]) is listed as “reduces”.

In the case of CCCC(C)(C)c1ccc2c(c1)OC(C)(C)[C@@H]1CC=C(C)C[C@@H]21 [JWH-133], the body weight (12-week HFD-fed DIO mice [3]; JWH-133 5 mg/kg oral gavage) is reported as “did not significantly alter”, the fat mass (12-week HFD-fed DIO mice [3]; JWH-133 5 mg/kg oral gavage) is reported as “did not significantly alter” and the food intake (12-week HFD-fed DIO mice [3]; JWH-133 5 mg/kg oral gavage) is reported as “did not significantly alter”. The fat pad mass (12-week HFD-fed DIO mice [3]; JWH-133 5 mg/kg oral gavage, 5 mg/kg) was “fat pad loss; also recorded: fat pad shrinkage”, the glucose tolerance (12-week HFD-fed DIO mice [6]; JWH-133 5 mg/kg oral gavage) was “did not significantly alter” and the “numbers of M1 ATMs per gram of fat” value ([4]; JWH-133 5 mg/kg oral gavage, 21 consecutive days) was “increased”. For the same compound, the “numbers of ATMs per gram of fat” value [4, 12] was “increased and more”, the “total ATMs” value [4, 12] was “promoted persistence; also recorded: stable abundance” and the “adipose tissue inflammatory markers” value (6-week 36% HFD-fed mice; [10]) was “increased”. The body weight (6-week 36% HFD-fed mice; [10]) was “no change”, the obesity (6-week 36% HFD-fed mice; [13]) was “potentiated” and the “white adipose tissue expression of Emr1 (macrophage marker F4/80)” value (6-week 36% HFD-fed mice; [13]) was “increased”.

In the case of CCCn1c(C)c(C(=O)c2cccc3ccccc23)c2ccccc21 [JWH-015], the adiposity [8] is listed as “reduced”, the appetite response [8] is listed as “anorectic response” and the body weight loss [8] is listed as “approximately 10%”. For the same compound, the glucose tolerance [8] was “improved” and the lipolysis [8] was “increased”.
